Results taken from patent US9399631B2, “Polyphenol proteasome inhibitors, synthesis, and methods of use” (UNIVERSITY OF SOUTH FLORIDA, priority 2003, dated 2016).

Key:
Type in all cases: cell-based, human
LNCaP cells [1] = assay: Western blot of proteasome target proteins in LNCaP cells; conditions: for increase of IκB-α levels / increase of p27 levels / Bax protein levels / apoptosis-specific PARP cleavage: 10 μM; for increase of IκB-α levels / increase of p27 levels: 12 hour treatment; for Bax protein levels / apoptosis-specific PARP cleavage: 24 hours
Summary of the method: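 LNCaP cells exposed to 25 μM (−)- or (+)-EGCG-amide for up to 9 h, or synthetic analogs for indicated hours. Whole-cell extracts (60 μg protein) probed by ECL Western blot for p27, IκB-α, Bax and polyubiquitinated proteins; p27 or IκB-α quantified as ratio to actin band intensity.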

LNCaP cells [2] = assay: Flow cytometry cell cycle analysis, LNCaP cells; conditions: 10 μM, 24 hours
Description: Flow Cytometry. Cell cycle analysis based on DNA content was performed as in An et al. (An, B. et al. Cell Death Differ, 1998, 5:1062-75). At each time point, cells were harvested, counted, and washed twice with PBS. Cells (5×10^6) were suspended in 0.5 ml PBS, fixed in 5 ml of 70% ethanol overnight at −20° C., centrifuged, resuspended again in 1 ml of propidium iodide staining solution (50 μg propidium iodide, 100 units RNase A and 1 mg glucose per ml PBS), and incubated at room temperature for 30 minutes. The cells were then analyzed with FACScan (Becton Dickinson Immunocytometry, Calif.), ModFit LT and WinMDI V.2.8 cell cycle analysis software (Verity Software; Topsham, Me.). The cell cycle distribution is shown as the percentage of cells containing G1, S, G2, and M phase DNA judged by propidium iodide staining The apoptotic population is determined as the percentage of cells with sub-G1 DNA content (<G1).
It has been shown that overexpression of p27 and IκB-α results in G1 arrest. If increased levels of these proteasome target proteins by synthetic GTPs are functional, it would be expected to see growth arrest of tumor cells in G1 phase. To test this hypothesis, asynchronous prostate LNCaP cells were treated with 10 μM of synthetic (+)-EGCG or (+)-GCG, along with each respective natural GTP as control, for 24 hours. Cells were then harvested, and analyzed by cell cycle analysis by flow cytometry. […] Growth arrest was determined by the increase in the percentage of the G1 population.

LNCaP cells [3] = assay: Soft agar colony formation assay; conditions: 10 μM, 14 day-incubation
Summary of the method: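 2×10^4 human prostate cancer cells seeded in 0.3% top agar over a 0.6% agar layer (DMEM, 10% FBS) together with analogs at 50 μM or 10 μM, or solvent control. Incubated 14 days at 37 °C, 5% CO2, then stained overnight with MTT (1 mg/ml). Colonies counted; means of triplicate independent experiments ± SD.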

Compound	increase of IκB-α levels (LNCaP cells [1]) [fold]	increase of p27 levels (LNCaP cells [1]) [fold]	Bax protein levels (LNCaP cells [1])	apoptosis-specific PARP cleavage (LNCaP cells [1])	increase in G1 arrest as compared to (−)-EGCG (LNCaP cells [2])	increase of G1 population (G1 arrest) (LNCaP cells [2]) [%]	inhibition of colony formation (LNCaP cells [3]) [%]	inhibition at 10 µM (LNCaP cells [3]; Homo sapiens, LNCaP, 336 h) [%]	levels of Bax protein (LNCaP cells [1]; 50 μM, 3 to 12 hours)	levels of p27, IκB-α and Bax (LNCaP cells [1]; 25 μM, up to 9 hours)
O=C(OC1Cc2c(O)cc(O)cc2OC1c1cc(O)c(O)c(O)c1)c1cc(O)c(O)c(O)c1 (single isomer, unassigned; (+)) [(+)-EGCG]	2.6	3.1	significantly increased Bax protein levels	induced the apoptosis-specific PARP cleavage	approximately 30%	18	99.5			
O=C(OC1Cc2c(O)cc(O)cc2OC1c1cc(O)c(O)c(O)c1)c1cc(O)c(O)c(O)c1 (single isomer, unassigned; (+)) [(+)-GCG]	3.7	5.8				~14		91.5		
O=C(O[C@@H]1Cc2c(O)cc(O)cc2O[C@@H]1c1cc(O)c(O)c(O)c1)c1cc(O)c(O)c(O)c1 [(−)-EGCG, (−)-epigallocatechin-3-gallate, reference compound]			significantly increased Bax protein levels	induced the apoptosis-specific PARP cleavage		~14	99.0		increased only at 12 hours	
O=C(N[C@@H]1Cc2c(O)cc(O)cc2O[C@@H]1c1cc(O)c(O)c(O)c1)c1cc(O)c(O)c(O)c1 [(−)-EGCG-amide, (−)-[2R,3R]-N-[5,7-Dihydroxy-2-(3,4,5-trihydroxyphenyl)-chroman-3-yl]-3,4,5-trihydroxybenzamide]										able to increase levels of p27, IκB-α and Bax by 3 hours
